# Experimental data published in PubChem BioAssay (NCI).
#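 Following 48 hours of exposure in 96-well plates, responses at five concentrations were used to interpolate endpoints linearly. TGI marks complete inhibition of growth.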
# How the values were obtained:
# Test in all cases: NCI tumour cell line growth inhibition, 48 h
# 786-0 renal = system: 786-0 renal
# A498 renal = system: A498 renal
# A549 NSCLC = system: A549 NSCLC
# ACHN renal = system: ACHN renal
# CAKI-1 renal = system: CAKI-1 renal
# CCRF-CEM leukemia = system: CCRF-CEM leukemia
# COLO 205 colon = system: COLO 205 colon
# DLD-1 colon = system: DLD-1 colon
# DMS 114 small cell lung = system: DMS 114 small cell lung
# DMS 273 small cell lung = system: DMS 273 small cell lung
# EKVX NSCLC = system: EKVX NSCLC
# HCC-2998 colon = system: HCC-2998 colon
# HCT-116 colon = system: HCT-116 colon
# HCT-15 colon = system: HCT-15 colon
# HL-60(TB) leukemia = system: HL-60(TB) leukemia
# HOP-18 NSCLC = system: HOP-18 NSCLC
# HOP-62 NSCLC = system: HOP-62 NSCLC
# HOP-92 NSCLC = system: HOP-92 NSCLC
# HT29 colon = system: HT29 colon
# IGROV1 ovarian = system: IGROV1 ovarian
# K-562 leukemia = system: K-562 leukemia
# KM12 colon = system: KM12 colon
# KM20L2 colon = system: KM20L2 colon
# LOX IMVI melanoma = system: LOX IMVI melanoma
# LXFL 529 NSCLC = system: LXFL 529 NSCLC
# M14 melanoma = system: M14 melanoma
# M19-MEL melanoma = system: M19-MEL melanoma
# MALME-3M melanoma = system: MALME-3M melanoma
# MOLT-4 leukemia = system: MOLT-4 leukemia
# NCI-H226 lung = system: NCI-H226 lung
# NCI-H23 lung = system: NCI-H23 lung
# NCI-H460 lung = system: NCI-H460 lung
# NCI-H522 lung = system: NCI-H522 lung
# OVCAR-3 ovarian = system: OVCAR-3 ovarian
# OVCAR-4 ovarian = system: OVCAR-4 ovarian
# OVCAR-5 ovarian = system: OVCAR-5 ovarian
# OVCAR-8 ovarian = system: OVCAR-8 ovarian
# RPMI-8226 leukemia = system: RPMI-8226 leukemia
# RXF 393 renal = system: RXF 393 renal
# RXF-631 renal = system: RXF-631 renal
# SF-268 CNS = system: SF-268 CNS
# SF-295 CNS = system: SF-295 CNS
# SF-539 CNS = system: SF-539 CNS
# SK-MEL-2 melanoma = system: SK-MEL-2 melanoma
# SK-MEL-28 melanoma = system: SK-MEL-28 melanoma
# SK-MEL-5 melanoma = system: SK-MEL-5 melanoma
# SK-OV-3 ovarian = system: SK-OV-3 ovarian
# SN12C renal = system: SN12C renal
# SNB-19 CNS = system: SNB-19 CNS
# SNB-75 CNS = system: SNB-75 CNS
# SNB-78 CNS = system: SNB-78 CNS
# SR leukemia = system: SR leukemia
# TK-10 renal = system: TK-10 renal
# U251 CNS = system: U251 CNS
# UACC-257 melanoma = system: UACC-257 melanoma
# UACC-62 melanoma = system: UACC-62 melanoma
# UO-31 renal = system: UO-31 renal
# XF 498 CNS = system: XF 498 CNS
# SW-620 colon = system: SW-620 colon
smiles,measurement,setting,value
CCOC(=O)COS(=O)(=O)C(F)(F)F,TGI,786-0 renal,> 100 µM
same,TGI,A498 renal,> 100 µM
same,TGI,A549 NSCLC,> 100 µM
same,TGI,ACHN renal,> 100 µM
same,TGI,CAKI-1 renal,> 100 µM
same,TGI,CCRF-CEM leukemia,> 100 µM
same,TGI,COLO 205 colon,> 100 µM
same,TGI,DLD-1 colon,> 100 µM
same,TGI,DMS 114 small cell lung,31.7 µM
same,TGI,DMS 273 small cell lung,36.7 µM
same,TGI,EKVX NSCLC,> 100 µM
same,TGI,HCC-2998 colon,> 100 µM
same,TGI,HCT-116 colon,> 100 µM
same,TGI,HCT-15 colon,35.1 µM
same,TGI,HL-60(TB) leukemia,> 100 µM
same,TGI,HOP-18 NSCLC,> 100 µM
same,TGI,HOP-62 NSCLC,> 100 µM
same,TGI,HOP-92 NSCLC,> 100 µM
same,TGI,HT29 colon,> 100 µM
same,TGI,IGROV1 ovarian,> 100 µM
same,TGI,K-562 leukemia,> 100 µM
same,TGI,KM12 colon,> 100 µM
same,TGI,KM20L2 colon,> 100 µM
same,TGI,LOX IMVI melanoma,34 µM
same,TGI,LXFL 529 NSCLC,> 100 µM
same,TGI,M14 melanoma,> 100 µM
same,TGI,M19-MEL melanoma,> 100 µM
same,TGI,MALME-3M melanoma,> 100 µM
same,TGI,MOLT-4 leukemia,> 100 µM
same,TGI,NCI-H226 lung,> 100 µM
same,TGI,NCI-H23 lung,> 100 µM
same,TGI,NCI-H460 lung,> 100 µM
same,TGI,NCI-H522 lung,> 100 µM
same,TGI,OVCAR-3 ovarian,> 100 µM
same,TGI,OVCAR-4 ovarian,> 100 µM
same,TGI,OVCAR-5 ovarian,> 100 µM
same,TGI,OVCAR-8 ovarian,> 100 µM
same,TGI,RPMI-8226 leukemia,50.5 µM
same,TGI,RXF 393 renal,> 100 µM
same,TGI,RXF-631 renal,> 100 µM
same,TGI,SF-268 CNS,> 100 µM
same,TGI,SF-295 CNS,> 100 µM
same,TGI,SF-539 CNS,> 100 µM
same,TGI,SK-MEL-2 melanoma,> 100 µM
same,TGI,SK-MEL-28 melanoma,> 100 µM
same,TGI,SK-MEL-5 melanoma,> 100 µM
same,TGI,SK-OV-3 ovarian,> 100 µM
same,TGI,SN12C renal,> 100 µM
same,TGI,SNB-19 CNS,> 100 µM
same,TGI,SNB-75 CNS,> 100 µM
same,TGI,SNB-78 CNS,> 100 µM
same,TGI,SR leukemia,49.1 µM
same,TGI,TK-10 renal,> 100 µM
same,TGI,U251 CNS,> 100 µM
same,TGI,UACC-257 melanoma,> 100 µM
same,TGI,UACC-62 melanoma,> 100 µM
same,TGI,UO-31 renal,> 100 µM
same,TGI,XF 498 CNS,> 100 µM
CCOC(=O)C(=O)Nc1c(C(C)C)cccc1C(C)C,TGI,786-0 renal,> 100 µM
same,TGI,A498 renal,> 100 µM
same,TGI,A549 NSCLC,> 100 µM
same,TGI,ACHN renal,> 100 µM
same,TGI,CAKI-1 renal,> 100 µM
same,TGI,CCRF-CEM leukemia,> 100 µM
same,TGI,COLO 205 colon,> 100 µM
same,TGI,DLD-1 colon,> 100 µM
same,TGI,DMS 114 small cell lung,> 100 µM
same,TGI,DMS 273 small cell lung,> 100 µM
same,TGI,EKVX NSCLC,> 100 µM
same,TGI,HCC-2998 colon,> 100 µM
same,TGI,HCT-116 colon,> 100 µM
same,TGI,HCT-15 colon,> 100 µM
same,TGI,HL-60(TB) leukemia,> 100 µM
same,TGI,HOP-18 NSCLC,> 100 µM
same,TGI,HOP-62 NSCLC,> 100 µM
same,TGI,HOP-92 NSCLC,> 100 µM
same,TGI,HT29 colon,> 100 µM
same,TGI,IGROV1 ovarian,> 100 µM
same,TGI,KM12 colon,> 100 µM
same,TGI,KM20L2 colon,> 100 µM
same,TGI,LXFL 529 NSCLC,> 100 µM
same,TGI,M14 melanoma,> 100 µM
same,TGI,M19-MEL melanoma,> 100 µM
same,TGI,MALME-3M melanoma,> 100 µM
same,TGI,MOLT-4 leukemia,> 100 µM
same,TGI,NCI-H226 lung,> 100 µM
same,TGI,NCI-H23 lung,> 100 µM
same,TGI,NCI-H460 lung,> 100 µM
same,TGI,NCI-H522 lung,> 100 µM
same,TGI,OVCAR-3 ovarian,> 100 µM
same,TGI,OVCAR-4 ovarian,> 100 µM
same,TGI,OVCAR-8 ovarian,> 100 µM
same,TGI,RXF 393 renal,> 100 µM
same,TGI,RXF-631 renal,> 100 µM
same,TGI,SF-268 CNS,> 100 µM
same,TGI,SF-295 CNS,> 100 µM
same,TGI,SF-539 CNS,> 100 µM
same,TGI,SK-MEL-2 melanoma,> 100 µM
same,TGI,SK-MEL-28 melanoma,> 100 µM
same,TGI,SK-MEL-5 melanoma,> 100 µM
same,TGI,SK-OV-3 ovarian,> 100 µM
same,TGI,SN12C renal,> 100 µM
same,TGI,SNB-19 CNS,> 100 µM
same,TGI,SNB-75 CNS,> 100 µM
same,TGI,SNB-78 CNS,> 100 µM
same,TGI,SR leukemia,> 100 µM
same,TGI,SW-620 colon,> 100 µM
same,TGI,TK-10 renal,> 100 µM
same,TGI,U251 CNS,> 100 µM
same,TGI,UACC-257 melanoma,> 100 µM
same,TGI,UACC-62 melanoma,> 100 µM
same,TGI,UO-31 renal,> 100 µM
same,TGI,XF 498 CNS,> 100 µM
